Test results reported in paper PMC8022858, “Discovery of bone morphogenetic protein 7-derived peptide sequences that attenuate the human osteoarthritic chondrocyte phenotype” (Molecular Therapy. Methods & Clinical Development, 2021).

Columns and labels:
OA-HAC pool = assay: Alanine scanning of peptide p[63-82], gene expression and bioactivity score; assay type: cell-based, human; conditions: pool of 18 OA-HACs, 100 nM; for impact of alanine substitution on peptide p[63-82] bioactivity (bioactivity score): 24 h, score = sum of fold change of COL10A1, ALPL, MMP13, COL2A1, NKX3-2 versus wild-type (Figure 5C)
Method: Figure 5 Molecular characterization of peptides p[63−82] and p[113−132] (A) A pool of OA-HACs (n = 4 donors) was transfected with a scrambled siRNA or with an NKX3-2 siRNA (100 nM siRNA) and cultured for 24 h. Cultures were then exposed to peptide p[63−82] or p[113−132] (100 nM peptide). Samples were harvested 24 h later and analyzed for the expression of the indicated mRNAs (normalized to 28S rRNA). (B) SW1353 chondrocytic cells were transfected with BRE (SMAD1/5/8 reporter) or CAGA12 (SMAD2/3 reporter) firefly luciferase-reporter plasmids. A CMV-Gaussia plasmid was cotransfected as a transfection control. Cells were then cultured for 24 h and subsequently exposed to control, p[63−82], or p[113−132] for 8 h. Firefly and Gaussia bioluminescence were measured in cells and medium (respectively), and relative light units (RLUs) of firefly luciferase were normalized for the Gaussia luciferase signal. The normalized firefly luciferase signal of the control condition was set at 1, and peptide conditions were calculated relative to the control condition (FL/GL). Error bars represent mean ± SEM; statistical significance for peptide conditions versus siScrambled or siNKX3-2 (A) or control condition (B) as determined by unpaired two-tailed Student’s t test is represented as ∗p < 0.05, ∗∗p < 0.01, and ∗∗∗p < 0.001. (C) An alanine scanning library of peptide p[63−82] was synthesized, and the pool of 18 OA-HACs originally used for the full library scanning (Figure 1) was exposed to individual peptides from the alanine scanning library (100 nM peptide) for 24 h. An alanine-scanning bioactivity score (sum of the fold change gene expression of COL10A1, ALPL, MMP13, and COL2A1 plus NKX3-2 of the alanine-substituted peptides versus the wild-type p[63−82] peptide) was calculated for each alanine substitution in the amino acid sequence of peptide p[63−82] and is represented by the height of each letter on the y axis (data in Figure S4). (D) Multiple sequence alignment of the human BMP7 p[63−82] peptide with the homologous region in BMP7 of other species.
We aimed to further understand the sequence dependency of the peptide bioactivity. Peptide p[63−82] was derived from the central region within BMP7, and since this yielded a limited series of bioactive peptides (Figures 1B and S2), we further focused our analyses on peptide p[63−82]. To determine which amino acids are important for the bioactivity of peptide p[63−82], an alanine-scanning peptide library was synthesized, based on systematic alanine substitution of consecutive amino acids in the peptide p[63−82] sequence (Table S1). This alanine-scanning library was then screened by exposing an OA-HAC pool (the same pool that was used for the full library scanning in Figure 1) for 24 h to 100 nM of each peptide in the alanine-scanning library. The bioactivity of each peptide was determined by measuring gene expression of COL10A1, ALPL, MMP13, COL2A1, and NKX3-2 (Figure S4). Changes in the bioactivity of the alanine-scanning library peptides were combined into a “bioactivity score” of each individual substituted amino acid in the parental p[63−82] peptide (Figure 5C). […] The region in BMP7 from which peptide p[63−82] was derived and the G7 position in it are evolutionary highly conserved, as determined by sequence alignment of BMP7 sequences from various animal species (Figure 5D).
For the peptide-screening and alanine-scanning experiments, cDNA was prepared using the Cells-to-Ct kit (Invitrogen) according to the manufacturer’s protocol. For the other experiments, cells or homogenized tissues (Mikro-Dismembrator; Braun Biotech International) were lysed in TRIzol (Life Technologies) and RNA isolation and cDNA synthesis were performed as described earlier.[27]^,[57] Quantitative real-time PCR was performed using Takyon qPCR Master Mix plus blue for SYBR Green (Eurogentec). […]

[1] = test system: primary human OA articular chondrocytes (OA-HACs); assay: BMP7 peptide library screening, quantitative real-time PCR of OA chondrocyte phenotype genes; assay type: cell-based; conditions: pool of 18 OA-HAC donors, scrambled peptides 100 nM, 24 h (Figure 2G)
Text: To investigate whether BMP7 harbors potential peptide sequences that improve the OA chondrocyte phenotype, a peptide library was designed from the mature 139 amino acid-long human BMP7 sequence (Table S2). The peptide library was designed as 20-mer peptides with 2 amino acid intervals (18 amino acid overlap) between individual peptides and with all cysteine residues substituted by serine residues to avoid uncontrolled oxidation of cysteine groups. This yielded 61 individual peptides covering the complete mature human BMP7 sequence (Figure 1A). The peptide library was screened using a pool of primary human OA articular chondrocytes (OA-HACs) from 18 individual donors. Prior to pooling, individual OA-HAC isolates were tested for their responsiveness to BMP7 (Figure S1). The screening was conducted by exposing the OA-HAC pool for 24 h to a concentration series (1, 10, 100, or 1,000 nM) of each peptide from the library. […] This is defined as reduced expression of collagen type X alpha 1 chain (COL10A1), alkaline phosphatase (ALPL), Runt-related transcription factor 2 (RUNX2), ADAMTS5, MMP13, prostaglandin-endoperoxide synthase 2 or cyclooxygenase-2 (COX-2), and interleukin 6 (IL6) and increased expression of SRY-box transcription factor 9 (SOX9), COL2A1, and NKX3-2. […] Representative peptides inducing the above gene expression characteristics in OA-HACs were selected from both regions for further investigation. These were peptide p[63−82] and p[113−132] from the library, covering amino acids 63−82 and 113−132 of the mature BMP7 amino acid sequence. The complete quantitative real-time PCR data for peptides p[63−82] and p[113−132] […] For the two candidate peptides, we validated data using an independent cohort of three OA-HACs exposed to 100 nM of p[63−82] or p[113−132] or a combination of both peptides. […] Taken together, two regions in BMP7 were identified delivering peptide sequences that are able to improve the OA chondrocyte phenotype.
Figure 1 BMP7 peptide library screening on primary human OA articular chondrocytes (OA-HACs) (A) Schematic representation of the design of the human BMP7 peptide library. (B) COL10A1 mRNA expression in samples from the library screening on a pool of 18 OA-HACs individually exposed for 24 h to the peptides (100 nM) in the library. Data are shown as compared to the control condition (white bar) and full-length BMP7 (1 nM; gray bar). The two blue bars represent candidate peptides p[63−82] and p[113−132]. […] Error bars represent mean ± SEM, and statistical significance for peptide condition or BMP7 versus control condition as determined by unpaired two-tailed Student’s t test is represented as ∗p < 0.05, ∗∗p < 0.01, and ∗∗∗p < 0.001; NS, not significant.
Figure 2 Bioactivity of BMP7-derived peptides p[63−82] and p[113−132] on OA-HACs Complete peptide library screening quantitative real-time PCR dataset for peptides p[63−82] and p[113−132] is presented. (A) SOX9, COL2A1, and NKX3-2 mRNA expression in the 18 OA-HAC pool exposed to 1,000, 100, 10, or 1 nM of peptide p[63−82] and p[113−132] is shown and presented relative to control (black bars) and alongside full-length BMP7 (white bars). (B) Similar to (A) but for chondrocyte hypertrophy-associated genes RUNX2, COL10A1, and ALPL. (C) Similar to (A) but for cartilage extracellular matrix remodeling-associated genes MMP13 and ADAMTS5 and inflammation-related genes COX-2 and IL-6. (D) Glycosaminoglycan (GAG) content (normalized to total protein content) on an independent cohort of three individual OA-HAC donors treated with 100 nM peptides p[63−82] and p[113−132] for 24 h. (E) Alkaline phosphatase (ALP) activity (normalized to total protein content) in similar samples from (D). (F) Prostaglandin E2 (PGE2) levels in culture supernatant in similar samples from (D). […]

Substance | impact of alanine substitution on peptide p[63-82] bioactivity (bioactivity score) (OA-HAC pool) | further results
H-AAYYSEGESAFPLNSAMNAT-OH [Y16A, alanine-scanning peptide of p[63−82], substitution position 16] | important impact | 
H-AAYYSEAESAFPLNSYMNAT-OH [G7A, alanine-scanning peptide of p[63−82], substitution position 07] | important impact | response on chondrocyte hypertrophy (OA-HAC pool; 24 h (Figure S4)): reciprocal response; impact on the chondrocyte phenotype-modulating action of the peptide (OA-HAC pool; 24 h (Figures 5C, S4)): largest impact
H-VYISNVDDYSNKFLLKVRSM-OH [scrambled p[113−132], scrambled version of peptide p[113−132], reference compound] |  | sequence specificity: expression of COL2A1, RUNX2, COL10A1, and COX-2 [1]: neither one of them was able to recapitulate the bioactivity
H-AAYYSEGASAFPLNSYMNAT-OH [E8A, alanine-scanning peptide of p[63−82], substitution position 08] | important impact | 
H-AAYYSEGESAFPLNSYANAT-OH [M17A, alanine-scanning peptide of p[63−82], substitution position 17] | important impact | 
H-AAYYSEGESAAPLNSYMNAT-OH [F11A, alanine-scanning peptide of p[63−82], substitution position 11] | important impact | 
H-AAAYSEGESAFPLNSYMNAT-OH [Y3A, alanine-scanning peptide of p[63−82], substitution position 03] | important impact | 
